Experimental data as given in publication PMC9000418 (Molecules, 2022).
Where two headings read alike, the source gives them in different places.

Key:
[1] = system: BChE; format: biochemical
Procedure: The inhibitory activities of all of the obtained chalcone derivatives (3a–3j) against cholinesterase enzymes were evaluated using the previously described in vitro modified Ellman’s spectrophotometric method.
The assay was completed in two steps. […].
[…]. The reagents and materials used in the enzyme inhibition assay were supplied commercially by Sigma-Aldrich (St. Louis, MO, USA) and Fluka (Steinheim, Germany). The cholinesterase enzyme inhibition procedure was applied as reported in our previous research papers.

[2] = biological target: AChE (Electrophorus electricus, UniProt O42275); test: AChE inhibition, in vitro modified Ellman's spectrophotometric method; format: biochemical; conditions: read-out: AChE % Inhibition
AChE, sequence (O42275 24-633): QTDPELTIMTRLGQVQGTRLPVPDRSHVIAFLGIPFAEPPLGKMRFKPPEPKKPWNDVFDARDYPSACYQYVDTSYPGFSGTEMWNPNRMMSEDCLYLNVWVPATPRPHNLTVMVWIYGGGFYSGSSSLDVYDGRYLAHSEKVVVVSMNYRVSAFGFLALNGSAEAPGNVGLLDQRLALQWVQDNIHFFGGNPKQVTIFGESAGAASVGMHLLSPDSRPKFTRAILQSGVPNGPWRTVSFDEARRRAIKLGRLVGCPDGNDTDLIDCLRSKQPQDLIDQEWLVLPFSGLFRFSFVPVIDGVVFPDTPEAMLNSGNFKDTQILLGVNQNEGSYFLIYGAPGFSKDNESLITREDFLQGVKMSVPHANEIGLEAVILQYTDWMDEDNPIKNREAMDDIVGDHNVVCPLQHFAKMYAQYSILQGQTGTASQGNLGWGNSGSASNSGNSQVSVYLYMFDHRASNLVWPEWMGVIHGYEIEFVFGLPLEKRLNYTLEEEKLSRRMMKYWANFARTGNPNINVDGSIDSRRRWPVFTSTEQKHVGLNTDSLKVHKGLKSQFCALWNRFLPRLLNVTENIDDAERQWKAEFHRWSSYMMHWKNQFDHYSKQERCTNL
From the text: The assay was completed in two steps.
The reagents and materials used in the enzyme inhibition assay were supplied commercially by Sigma-Aldrich (St. Louis, MO, USA) and Fluka (Steinheim, Germany). The cholinesterase enzyme inhibition procedure was applied as reported in our previous research papers.

[3] = Cytotoxicity MTT assay in NIH/3T3 cell line; format: cell-based; conditions: mouse, NIH/3T3 mouse embryonic fibroblast cells, read-out: IC50 against NIH/3T3 cells (cytotoxicity)
Procedure: The NIH/3T3 mouse embryonic fibroblast cell line (ATCC® CRL-1658™, London, UK) was used for cytotoxicity assays. The incubation period of NIH/3T3 cells was based on the supplier’s recommendation. NIH/3T3 cells were seeded at 1 × 10^4 cells into each well of the 96-well plates. The MTT assay was carried out in accordance with the standards previously described.

[4] = DPPH free radical scavenging antioxidant activity
From the text: This activity method is a method based on measuring the scavenging effects of the DPPH• (1,1-Diphenyl-2-picrylhydrazil) radical, which is a stable organic nitrogen radical of antioxidants. One of the few stable organic nitrogen radicals, the DPPH• radical is dark violet in color. This method, which is based on the scavenging of the DPPH radical via antioxidants, is a redox reaction. When this radical interacts with hydrogen donors, it is reduced to hydrazine. The dark purple color of the methanolic DPPH• solution turns yellow with the addition of antioxidants, and the change in absorbance is measured spectrophotometrically. More illumination is determined by a greater reduction in the absorbance of the reaction mixture and indicates higher radical scavenging capacity.
For the DPPH free radical scavenging activity test, test compounds were prepared at 10 µM, 1 µM, 0.1 µM, and 0.01 µM concentrations, as shown in Figure 3. By using the absorbance changes determined because of the spectroscopic measurement, the % DPPH free radical scavenging activities of the synthesized compounds and reference materials (ascorbic acid and citric acid) were determined. The % antioxidant activities of all tested compounds were calculated based on the control.
This is a method based on measuring the scavenging effects of the DPPH (1,1-Diphenyl-2- picrylhydrazyl) radical, a stable organic nitrogen-centered free radical. To prepare the DPHH solution, 9.86 mg of DPPH was measured and topped up to 25 mL with methanol. A total of 100 µL of DPPH solution and 100 µL of the test solutions were placed in the test wells. Only 200 µL of methanol was used for blank reading; 100 µL of methanol and 100 µL of DPPH solution were used for control. After incubation, spectrophotometric reading was performed at 517 nm.

[5] = In vitro BBB permeability assay (PAMPA); format: in vitro ADME; conditions: for Type of BBB Permeation: PAMPA, PBS pH 7.4, donor 100 μM; for BBB permeability (in words): in vitro PAMPA
Procedure: As it is known, the ability of drugs to be used in diseases related to the central nervous system to pass the blood–brain barrier is an indispensable feature. These properties of the synthesized compounds were estimated using physicochemical parameters. […].
To observe the BBB permeability of the active compounds 3i and 3j, the parallel artificial membrane permeability assay (PAMPA) was performed as previously described. Briefly, the solutions of each compound were prepared in dimethyl sulfoxide (DMSO) at 10 mM and then diluted with PBS (Phosphate-Buffered Saline; pH = 7.4) to obtain the donor drug solution with the nominal final concentration of 100 μM (297 μL of buffer + 3 μL of DMSO drug solution). An amount of 100 μM is suitable for direct HPLC-DAD measurements. This solution was shaken for 1 h at room temperature in a 96-well polypropylene plate (Agilent, Waldbronn, Germany) and then filtered to avoid solid particles. The data were measured in 3 replicates on each plate. After the preparation of the solutions, the assay procedure was performed according to the kit method.

| Compound | BChE % Inhibition ([1]; 10^−3 M) | BChE % Inhibition ([1]; 10^−4 M) | inhibition at 100 µM [2] | inhibition at 1000 µM [2] | IC50 [3] | % DPPH free radical scavenging (inhibition) ([4]; 0.01 µM) | % DPPH free radical scavenging (inhibition) ([4]; 0.1 µM) | % DPPH free radical scavenging (inhibition) ([4]; 1 µM) | % DPPH free radical scavenging (inhibition) ([4]; 10 µM) | Type of BBB Permeation [5] | BBB permeability (in words) [5] |
| --- | --- | --- | --- | --- | --- | --- | --- | --- | --- | --- | --- |
| O=C1CSc2ccc(C(=O)CSc3nnc(Nc4ccccc4)s3)cc2N1 [Compound 3g, 6-(2-((5-(Phenylamino)-1,3,4-thiadiazol-2-yl)sulfanyl)acetyl)-2H-benzo[b][1,4]thiazin-3(4H)-one] | 39.6 ± 0.9% | 24.8 ± 0.8% | 44.5 ± 0.8% | 80.1 ± 1.2% |  |  |  |  |  |  |  |
| COc1ccc(Nc2nnc(SCC(=O)c3ccc4c(c3)NC(=O)CS4)s2)cc1 [Compound 3i, 6-(2-((5-((4-Methoxyphenyl)amino)-1,3,4-thiadiazol-2-yl)sulfanyl)acetyl)-2H-benzo[b][1,4]thiazin-3(4H)-one] | 40.2 ± 0.9% | 28.0 ± 0.8% | 90.5 ± 1.1% | 93.2 ± 1.4% | 98.3 ± 3.98 µM | 65.00% ± 1.10 | 75.00% ± 1.80 | 82.00% ± 1.20 | 90.00% ± 2.40 | CNS+ High BBB permeation (High BBB permeation Pe (10^−6 cm s^−1) > 4.0) | high BBB permeability |
| CCCNc1nnc(SCC(=O)c2ccc3c(c2)NC(=O)CS3)s1 [Compound 3b, 6-(2-((5-(Propylamino)-1,3,4-thiadiazol-2-yl)sulfanyl)acetyl)-2H-benzo[b][1,4]thiazin-3(4H)-one] | 34.9 ± 0.8% | 26.9 ± 0.6% | 45.6 ± 0.9% | 75.4 ± 1.4% |  |  |  |  |  |  |  |
| CC(C)Nc1nnc(SCC(=O)c2ccc3c(c2)NC(=O)CS3)s1 [Compound 3c, 6-(2-((5-(Isopropylamino)-1,3,4-thiadiazol-2-yl)sulfanyl)acetyl)-2H-benzo[b][1,4]thiazin-3(4H)-one] | 29.1 ± 0.8% | 20.4 ± 0.7% | 40.1 ± 0.9% | 70.6 ± 1% |  |  |  |  |  |  |  |
| O=C1CSc2ccc(C(=O)CSc3nnc(Nc4ccc(Cl)cc4)s3)cc2N1 [Compound 3j, 6-(2-((5-((4-chlorophenyl)amino)-1,3,4-thiadiazol-2-yl)sulfanyl)acetyl)-2H benzo[b][1,4]thiazin-3(4H)-one] | 42.5 ± 0.9% | 27.9 ± 0.7% | 92.3 ± 1.3% | 96.5 ± 1.2% | 160 ± 5.53 µM | 68.00% ± 1.50 | 73.00% ± 1.40 | 85.00% ± 2.00 | 92.00% ± 1.80 | CNS+ High BBB permeation (High BBB permeation Pe (10^−6 cm s^−1) > 4.0) | high BBB permeability |
| O=C1CSc2ccc(C(=O)CSc3nnc(NC4CCCCC4)s3)cc2N1 [Compound 3f, 6-(2-((5-(Cyclohexylamino)-1,3,4-thiadiazol-2-yl)sulfanyl)acetyl)-2H-benzo[b][1,4]thiazin-3(4H)-one] | 30.5 ± 0.8% | 26.2 ± 0.8% | 45 ± 1% | 65.4 ± 1.3% |  |  |  |  |  |  |  |
| CCNc1nnc(SCC(=O)c2ccc3c(c2)NC(=O)CS3)s1 [Compound 3a, 6-(2-((5-(Ethylamino)-1,3,4-thiadiazol-2-yl)sulfanyl)acetyl)-2H-benzo[b][1,4]thiazin-3(4H)-one] | 31.8 ± 0.8% | 25.1 ± 0.8% | 48.8 ± 0.8% | 78.2 ± 1.2% |  |  |  |  |  |  |  |
| CC(C)CNc1nnc(SCC(=O)c2ccc3c(c2)NC(=O)CS3)s1 [Compound 3e, 6-(2-((5-(Isobutylamino)-1,3,4-thiadiazol-2-yl)sulfanyl)acetyl)-2H-benzo[b][1,4]thiazin-3(4H)-one] | 37.3 ± 0.8% | 24.6 ± 0.9% | 46.2 ± 0.8% | 69.9 ± 1.2% |  |  |  |  |  |  |  |
| CCCCNc1nnc(SCC(=O)c2ccc3c(c2)NC(=O)CS3)s1 [Compound 3d, 6-(2-((5-(Butylamino)-1,3,4-thiadiazol-2-yl)sulfanyl)acetyl)-2H-benzo[b][1,4]thiazin-3(4H)-one] | 36.1 ± 0.9% | 21.4 ± 0.9% | 47.3 ± 0.9% | 72.7 ± 1.5% |  |  |  |  |  |  |  |
| Cc1ccc(Nc2nnc(SCC(=O)c3ccc4c(c3)NC(=O)CS4)s2)cc1 [Compound 3h, 6-(2-((5-(p-Tolylamino)-1,3,4-thiadiazol-2-yl)sulfanyl)acetyl)-2H-benzo[b][1,4]thiazin-3(4H)-one] | 35.6 ± 0.7% | 23.5 ± 0.7% | 42.7 ± 0.8% | 82.2 ± 1.8% |  |  |  |  |  |  |  |
